The source of these data is article PMC12281475, “Mediator Kinase Inhibitor Selectivity and Activity in Colorectal Cancer” (ACS Chemical Biology, 2025).

The subject of this test is SW620 cells. The test can be described thus: Promoter reporter panel (transient luciferase constructs), SW620. The class given is cell-based, human. To be noted: parent SW620, 350 nM, 6 h. Here is the method:
Transcription factor activity was assayed in cell lines using 45 different plasmid reporter constructs encoding firefly luciferase under the control of a basal promoter element downstream of specific transcriptional response elements (Qiagen, Germany; Supporting Table S1). Firefly luciferase under the control of basal promoter element alone was used to establish the baseline signal and cotransfection of a construct expressing renilla luciferase from a CMV-promoter was used as a transfection control. Cells were reverse-transfected with reporter plasmids, compounds were added 42 h post transfection and reporter activity quantified following 6 h continuous exposure. […]
multichannel pipette. Where indicated, spheroids were treated at day 4. At days 3, 6 and 8 following compound addition, 50% medium replenishment was performed. Cell-titre Glo analyses were carried out at day 14 for luminescence measurement on a Synergy 2 SL Luminescence microplate reader (BioTek, UK). Values are means ± […]
Single and double knockout clones of human SW620 colon cancer cells lacking CDK8, CDK19 or both kinases were generated using a CRISPR/Cas9 knockout strategy.
Constructs for knockout carried a Cas9 gene, a fluorescent protein gene (GFP for CDK8 and RFP for CDK19) and sgRNAs to human CDK8 […]
Single and double CDK8 and CDK19 knockout clones were generated by transiently transfecting SW620 cells using Lipofectamine 3000 (Thermo Fisher Scientific, UK).
Cells were harvested 72 hours post-transfection and the top 1% GFP, RFP or GFP/RFP positive cells were sorted by FACS into 96 well plates at one cell/well.
Knockout clones were identified by a capillary immunoassay for CDK8 or CDK19 […]
kinase mutant (CDK8D173A)2 were established by transfection of CDK8 CRISPR knockout clone 1 with a pCMV6-CDK8-cMyc-FLAG construct.
Transcription factor promoter reporter assays were carried out to define signalling pathways and biological processes modulated by CDK8/19 ligands. […]
and body weights recorded.

On to `Cn1cc(-c2ccc(-c3cncc(Cl)c3N3CCC4(CCNC4=O)CC3)cc2)cn1` [CCT251545], for which the p53 reporter activity result was “significant decrease”. Besides, where the note is “mean ± s.e.m”, the “AARE promoter reporter activity relative to vehicle control” value was determined as 0.82 ± 0.06 and the “AP1 promoter reporter activity relative to vehicle control” value is 0.78 ± 0.04.
